{"source": "patent US9393255B2", "about": "“Pharmaceutical compositions of cytidine analogs and methods of use thereof” (Celgene Corporation, priority 2011, dated 2016)", "key": {"leukemic mouse model": {"system": "leukemic mouse model", "assay": "activity and toxicity of degradation products in a leukemic mouse model", "format": "in vivo"}, "[1]": {"assay": "aqueous degradation kinetics of 5-azacytidine (solution and suspension)", "format": "physicochemical", "method": "The aqueous degradation kinetics of 5-azacytidine was evaluated. […] At lower temperatures, the degradation of 5-azacytidine is slower."}, "[2]": {"assay": "stability of 5-azacytidine suspension reconstituted with cold Water for Injection, stored refrigerated or frozen (Example E)", "format": "physicochemical", "method": "The reconstituted suspension of 5-azacytidine was then stored either refrigerated or frozen.\nIn one experiment, the suspension was stored at a temperature of between about 2° C. and about 8° C. for up to 72 hours, and then warmed to about 25° C. over a period of about 30 minutes. In another experiment, the suspension was stored at a temperature of about −20° C. for up to 7 days, and then thawed and stored refrigerated for up to 48 hours, and then warmed to about 25° C. over a period of about 30 minutes.\nThe dry lyophilized powder was stored in the vials under normal conditions for about 48 months prior to use in this experiment.\nThe contents of the vials were reconstituted with cold Water for Injection. Prior to reconstitution, the Water for Injection was stored refrigerated for at least 24 hours. All vials were reconstituted into an opaque, white suspension within 20 seconds.\nThe vials were stored at conditions described above for a certain time. The contents of all vials were re-dispersed into an opaque, white suspension within 20 seconds of shaking after each storage conditions or time points described in this example."}, "[3]": {"assay": "cold water reconstitution of Vidaza with frozen storage, Study 2: HPLC assay, redispersion time, appearance (Example G)", "format": "physicochemical", "conditions": "reconstituted with refrigerated WFI, stored frozen (−20° C.)", "method": "The study was performed in a similar fashion as Example F, and the cold water reconstituted suspension was then stored under frozen conditions. […] A study to determine the thawing time of the frozen suspensions at 25° C. was also conducted.\nTesting was performed using two lots of homogenized drug product. […] The second study analyzed the reconstituted drug product after storage of reconstituted drug product at −20° C. utilizing hold times of 24, 48, and 72 hours followed by a post hold time of 45 minutes at 25° C. to allow for thawing as determined in the first study.\nAnalytical Methods: The amount of azacitidine and related impurities contained in azacitidine samples was determined utilizing High Performance Liquid Chromatography (HPLC). Two methods were used to complete this testing. […] Reconstitution and redispersibility times were determined in a manner similar to that as described in Example F. Appearance of the suspension was determined visually. […]\nAn appropriate number of homogenized azacitidine drug product vials were reconstituted with refrigerated WFI as described above, and placed in a freezer (−20° C.). […] After thawing, the contents of the vials were analyzed, for example, by HPLC. […] In addition to the frozen vials, a set of drug product vials were reconstituted and diluted, and immediately analyzed for use as T0 (baseline). […]"}, "[4]": {"assay": "aqueous solubility of 5-azacytidine", "format": "physicochemical", "conditions": "water", "method": "In one embodiment, the reconstituted liquid dosage form is allowed to warm to room temperature (e.g., within a period of less than about 30 minutes) before parenteral use. […] In some embodiments, when the dosage form is at room temperature, about one-half of 5-azacytidine is dissolved, with about the other half present as solid in the suspension.\n(§1) Generally at lower temperature a smaller amount of 5-azacytidine may be dissolved in water."}, "higher-risk MDS": {"system": "higher-risk MDS", "conditions": "Phase III, subcutaneous, subjects with higher-risk MDS; cited from earlier work"}, "[5]": {"assay": "human pharmacokinetics of 5-azacytidine after SC or IV dosing", "format": "in vivo"}, "pKa of 5-azacytidine": {"assay": "pKa of 5-azacytidine", "format": "physicochemical", "conditions": "25° C.", "from_the_text": "as §1"}, "MDS, AML, CML, ALL, NHL": {"system": "MDS, AML, CML, ALL, NHL", "conditions": "treatment of MDS; cited from earlier work"}, "[6]": {"assay": "cold water reconstitution of Vidaza with refrigerated storage: potency, redispersibility time, appearance (Example F)", "format": "physicochemical", "conditions": "for stability time (not more than 3% loss of potency from Time 0): cold WFI (2-8° C.) reconstitution, refrigerated (2-8° C.) storage", "method": "Sterility testing was performed at the end of the study. Stability of azacitidine was defined in this study as not more than 3% loss of potency from Time 0 (e.g., baseline).\nAnalytical methods and stability testing: The potency of azacitidine was determined by quantitating the sample against an external standard utilizing reverse phase chromatography with UV detection, in accordance with ICH guidelines. The determination of suspension appearance for redispersibility time was performed visually, in accordance with ICH guidelines.\nStability testing of azacitidine was performed by utilizing validated regulatory accepted analytical methods in accordance with ICH guidelines. These studies were conducted at conditions which encompass long-term, intermediate and accelerated storage of the drug product over a period of time.\nMaterials and methods: Two lots of sterile commercial scale azacitidine drug product, each nearing the end of their expiry period of 48 months, were used for the study. Each lot of drug product was prepared as a homogeneous mixture of lyophilized powder and placed in labeled vials in preparation for reconstitution. Vials from each lot of azacitidine drug product were then reconstituted with 4 mL of refrigerated (2-8° C.) WFI and immediately placed in refrigerated storage (2-8° C.). After refrigerated storage for 16, 18, 20, and 22 hours, reconstituted vials of azacitidine were removed from refrigeration and placed at 25° C. for 30 minutes. Equilibration time to 25° C. for refrigerated azacitidine suspension was determined to be 30 minutes. […] Stability of azacitidine was defined in this study as not more than 3% loss of potency from Time 0 (e.g., baseline). Sterility of the refrigerated drug product was assessed for reconstituted vials stored at 2-8° C. at end of study."}}, "note": "“Also recorded” adds a separate entry of the source.", "data": [{"smiles": "N=C(NC=O)NC(=O)N[C@@H]1O[C@H](CO)[C@@H](O)[C@H]1O", "note": "[primary degradation product, N-formylguanyribosylurea]", "values": [{"measurement": "activity relative to 5-azacytidine", "setting": "leukemic mouse model; dosed at about 240 mg/m^2", "value": "about 25%"}, {"measurement": "toxicity relative to 5-azacytidine", "setting": "leukemic mouse model; dosed at about 240 mg/m^2", "value": "about 25%"}]}, {"smiles": "NC(N)=NC(=O)N[C@@H]1O[C@H](CO)[C@@H](O)[C@H]1O", "note": "[secondary degradation product, guanylribosylurea]", "values": [{"measurement": "activity", "setting": "leukemic mouse model; dosed at 1440 mg/m^2", "value": "neither activity nor toxicity"}, {"measurement": "toxicity", "setting": "leukemic mouse model; dosed at 1440 mg/m^2", "value": "neither activity nor toxicity"}]}, {"smiles": "Nc1ncn([C@@H]2O[C@H](CO)[C@@H](O)[C@H]2O)c(=O)n1", "note": "[5-azacytidine, 4-amino-1-β-D-ribofuranosyl-1,3,5-triazin-2(1H)-one]", "values": [{"measurement": "Degradation Rate", "setting": "[1]; Solution, 2° C. to 8° C.", "value": 0.7, "unit": "% per hour"}, {"measurement": "Degradation Rate", "setting": "[1]; Solution, 25° C.", "value": 2.8, "unit": "% per hour"}, {"measurement": "Degradation Rate", "setting": "[1]; Suspension, 2° C. to 8° C.", "value": 0.1, "unit": "% per hour"}, {"measurement": "Degradation Rate", "setting": "[1]; Suspension, 25° C.", "value": 2.5, "unit": "% per hour"}, {"measurement": "degradation on frozen storage", "setting": "[2]; reconstituted with cold Water for Injection, stored frozen, for at least 7 days", "value": "no significant degradation"}, {"measurement": "Degradation Rate", "setting": "[2]; suspension reconstituted with cold Water for Injection, stored refrigerated", "value": "about 0.12 % w/w per hour"}, {"measurement": "stability time under frozen storage", "setting": "[3]", "value": "up to 72 hours"}, {"measurement": "solubility", "setting": "[4]; 5° C.", "value": "~6.4", "unit": "mg/mL"}, {"measurement": "solubility", "setting": "[4]; 25° C.", "value": "~14", "unit": "mg/mL"}, {"measurement": "survival and time to AML transformation or death", "setting": "higher-risk MDS", "value": "significantly prolonged survival and time to AML transformation or death"}, {"measurement": "Cmax for SC dosing", "setting": "[5]; SC", "value": "rapid"}, {"measurement": "bioavailability", "setting": "[5]; in vivo, subcutaneous, SC vs IV, read-out: relative bioavailability of SC dose (relative to IV dose)", "value": "~90", "unit": "%"}, {"measurement": "pKa", "setting": "pKa of 5-azacytidine; higher of the two pKa values", "value": "~10.2"}, {"measurement": "pKa", "setting": "pKa of 5-azacytidine; lower of the two pKa values", "value": "~2.8"}, {"measurement": "anti-tumor activity in clinical trials", "setting": "MDS, AML, CML, ALL, NHL", "value": "significant anti-tumor activity"}, {"measurement": "redispersion time", "setting": "[6]; 16, 18, 20 and 22 hr refrigerated storage and 30 minutes equilibration to 25° C.", "value": 0.3, "unit": "min"}, {"measurement": "appearance of suspension", "setting": "[6]; 16, 18, 20 and 22 hr refrigerated storage and 30 minutes equilibration to 25° C., listed as Azacitidine", "value": "fine white particles in suspension"}, {"measurement": "appearance of suspension", "setting": "[6]; 16, 18, 20 and 22 hr refrigerated storage and 30 minutes equilibration to 25° C., listed as azacitidine", "value": "fine white particles in suspension and the absence of clumps"}, {"measurement": "stability time (not more than 3% loss of potency from Time 0)", "setting": "[6]; listed as Azacitidine", "value": "about 22 hours"}, {"measurement": "stability time (not more than 3% loss of potency from Time 0)", "setting": "[6]; listed as azacitidine", "value": 22, "unit": "h"}, {"measurement": "prolongation of stability time versus usual reconstitution", "setting": "[6]; cold WFI reconstitution with refrigerated storage, 8 to 22 hours, listed as azacitidine", "value": "about a threefold prolongation; also recorded: nearly threefold"}, {"measurement": "maximum loss of potency", "setting": "[6]; cold water (2-8° C.) reconstitution, refrigerated storage baseline to 22 hr, 30 minutes equilibration to 25° C., each of the two lots", "value": 2.7, "unit": "%"}]}, {"smiles": "Nc1ncn([C@H]2C[C@H](O)[C@@H](CO)O2)c(=O)n1", "note": "[5-aza-2′-deoxycytidine]", "values": [{"measurement": "anti-tumor activity in clinical trials", "setting": "MDS, AML, CML, ALL, NHL", "value": "significant anti-tumor activity"}]}]}
